The text below walks through data of publication PMC12067128, “Macrocyclization: Enhancing Drug-like Properties of Discoidin Domain Receptor Kinase Inhibitors” (ACS Medicinal Chemistry Letters, 2025).

Where two headings read alike, the source gives them in different places.

In data set [1] the test system is MDCK-WT wild-type cells. The experiment in a line: MDCK-WT permeability assay.
Data set [2] in a line: MDCK-WT permeability assay. The note with it: dog, MDCK, pH 7.4.
The nature of data set [3]: pH-metric determination of pKa values (SiriusT3). The note with it: methanol/ISA water cosolvent mixtures (0.15 M KCl), MeOH:ISA water cosolvent, extrapolated to 0% cosolvent, 25 °C, n=4. It is filed as physicochemical. The procedure: pH-metric determination of pKa values
Experimental pKa was determined by pH-metric approaches using SiriusT3 (PIon Inc. Ltd, Forrest Row, UK) instrument which integrates a dispenser module equipped with precision dispensers, 0.5 mL syringes, a multi-tip capillary bundle, a titrator module, a microstirrer with variable speed, a combined double junction Ag/AgCl pH and reference electrode and a fibre optics dip probe connected to a deuterium UV pulsed light source and a photodiode array (PDA) detector, acquiring spectra in the 200-700 nm wavelength range. SiriusT3 Control software v 1.1.3.0 was employed for acquisition, while Sirius T3 Refine software v. 1.1.3.0 was used for data analysis. The glass microelectrode was standardized by means of a strong acid-strong base titration (0.5N HCl vs. 0.5N KOH) in the pH range 2.0-12.0 at fixed temperature (25±0.5°C) and I = 0.15 M for KCl addition, in N2 atmosphere. […]
The original method was described in a previous paper.e Briefly, a HPLC Thermo Fisher Scientific Dionex Ultimate 3000 instrument equipped with a Low-Pressure Mixing Gradient Pump LPG-3400 SD, ACC-3000 autosampler with termostatable column compartment, a DAD-3000 RS Detector and Chromeleon Data System Version 7.2.10 was used. […] The dead time, t0, was determined by monitoring the baseline disturbance. […]

A short description of the next data set: in vitro. The conditions noted are these: dog, MDCK, pH 7.4.
For data set [4], the system named is MDCK-WT wild-type cells.

As usually defined, the Papp A→B is the apparent permeability from the apical to the basolateral side of a cell layer. Low readings indicate poor permeation, high ones ready permeation. In the case of `O=C1COc2ccc(cc2)Nc2ccnc(n2)Nc2cnn(c2)CCCN1` [Compound 6b], in the data set with MDCK-WT wild-type cells [1], the “permeability in the MDCK model (in words)” value (“permeability” below) is listed as “moderately permeable”. In addition, the apical-to-basolateral permeability (Papp A→B) at 1 h, 10 µM in data set [2] was found to be 4.8 ± 1 ×10⁻⁶ cm/s.
For `Cn1cc2c3nc(ncc31)Nc1cnn(c1)CCCNC(=O)COc1ccc-2cc1` [Compound 5b], in that order: “highly permeable” and 21 ± 0.8 ×10⁻⁶ cm/s.
Usually pKa stands for the negative logarithm of the acid dissociation constant. Take `Cn1cc2c3nc(ncc31)Nc1cnn(c1)CCCNCCOc1ccc-2cc1` [Compound 5a]: the pKa in data set [3] (read-out: pKa (basic), amino group (propan-1-amine)) is 8.2; in data set [3] (read-out: pKa (basic), pyrrolo-pyrimidine moiety), 4.35. For the same compound, in “in vitro”, the apical-to-basolateral permeability (Papp A→B) at 1 h, 10 µM was 18.4 ± 0.6 ×10⁻⁶ cm/s. Besides, in the data set on MDCK-WT wild-type cells [4], the “permeability” value is “highly permeable”.
`c1cc2nc(n1)Nc1cnn(c1)CCCNCCOc1ccc(cc1)N2` [Compound 6a]: in “in vitro”, the Papp A→B at 1 h, 10 µM amounted to 5.8 ± 1.1 ×10⁻⁶ cm/s. The “permeability” value with MDCK-WT wild-type cells [4] is on record as “moderately permeable”.
